Test results published in patent publication US20190364899A1, “MICROBIOCIDAL OXADIAZOLE DERIVATIVES” (SYNGENTA PARTICIPATIONS AG, priority 2015, published 2019).

Key:
[1] = test system: Glomerella Lagenarium (Colletotrichum Lagenarium); test: Fungicidal activity against Glomerella lagenarium (Colletotrichum lagenarium) liquid culture / cucumber / preventative (anthracnose); assay type: cell-based; settings: Colletotrichum orbiculare; 20 ppm in the applied formulation; liquid culture in PDB, growth inhibition measured photometrically 3 to 4 days after application; compared to untreated; read-out: disease control
Procedure: (§1) General examples of leaf disk tests in well plates: Leaf disks or leaf segments of various plant species are cut from plants grown in a greenhouse. The cut leaf disks or segments are placed in multiwell plates (24-well format) onto water agar. The leaf disks are sprayed with a test solution before (preventative) or after (curative) inoculation. Compounds to be tested are prepared as DMSO solutions (max. 10 mg/ml) which are diluted to the appropriate concentration with 0.025% Tween20 just before spraying. The inoculated leaf disks or segments are incubated under defined conditions (temperature, relative humidity, light, etc.) according to the respective test system. A single evaluation of disease level is carried out 3 to 14 days after inoculation, depending on the pathosystem. Percent disease control relative to the untreated check leaf disks or segments is then calculated. General examples of liquid culture tests in well plates: Mycelia fragments or conidia suspensions of a fungus prepared either freshly from liquid cultures of the fungus or from cryogenic storage, are directly mixed into nutrient broth. DMSO solutions of the test compound (max. 10 mg/ml) are diluted with 0.025% Tween20 by a factor of 50 and 10 μl of this solution is pipetted into a microtiter plate (96-well format). The nutrient broth containing the fungal spores/mycelia fragments is then added to give an end concentration of the tested compound. The test plates are incubated in the dark at 24° C. and 96% relative humidity. The inhibition of fungal growth is determined photometrically after 2 to 7 days, depending on the pathosystem, and percent antifungal activity relative to the untreated check is calculated.
Example 4: Fungicidal Activity Against Glomerella Lagenarium (Colletotrichum Lagenarium) Liquid Culture/Cucumber/Preventative (Anthracnose)
Conidia of the fungus from cryogenic storage are directly mixed into nutrient broth (PDB—potato dextrose broth). After placing a (DMSO) solution of test compound into a microtiter plate (96-well format), the nutrient broth containing the fungal spores is added. The test plates are incubated at 24° C. and the inhibition of growth is measured photometrically 3 to 4 days after application.
The following compounds at 20 ppm in the applied formulation give at least 80% disease control in this test when compared to untreated control under the same conditions, which show extensive disease development.

Phakopsora pachyrhizi = test: Fungicidal activity against Phakopsora pachyrhizi / soybean / leaf disc preventative (Asian soybean rust); assay type: in vivo; settings: foliar, 200 ppm in the applied formulation, soybean leaf disks, inoculated one day after application, compared to untreated, read-out: disease control
Procedure: as §1
Example 3: Fungicidal Activity Against Phakopsora pachyrhizi/Soybean/Leaf Disc Preventative (Asian Soybean Rust)
Soybean leaf disks are placed on water agar in multiwell plates (24-well format) and sprayed with the formulated test compound diluted in water. One day after application leaf discs are inoculated by spraying a spore suspension on the lower leaf surface. After an incubation period in a climate cabinet of 24-36 hours in darkness at 20° C. and 75% rh leaf disc are kept at 20° C. with 12 h light/day and 75% rh. The activity of a compound is assessed as percent disease control compared to untreated when an appropriate level of disease damage appears in untreated check leaf disks (12 to 14 days after application).
(§2) The following compounds at 200 ppm in the applied formulation give at least 80% disease control in this test when compared to untreated control leaf disks under the same conditions, which show extensive disease development.

[2] = test system: Puccinia recondita f, Sp. Tritici; test: Fungicidal activity against Puccinia recondita f. sp. tritici / wheat / leaf disc preventative (brown rust); assay type: in vivo; settings: foliar, 200 ppm in the applied formulation, wheat leaf segments cv. Kanzler, inoculated 1 day after application, compared to untreated, read-out: disease control
Procedure: as §1
Example 1: Fungicidal Activity Against Puccinia recondita f, Sp. Tritici/Wheat/Leaf Disc Preventative (Brown Rust)
Wheat leaf segments cv. Kanzler were placed on agar in multiwell plates (24-well format) and sprayed with the formulated test compound diluted in water. The leaf disks were inoculated with a spore suspension of the fungus 1 day after application. The inoculated leaf segments were incubated at 19° C. and 75% relative humidity (rh) under a light regime of 12 hours light/12 hours darkness in a climate cabinet and the activity of a compound was assessed as percent disease control compared to untreated when an appropriate level of disease damage appears in untreated check leaf segments (7 to 9 days after application).
as §2

[3] = test system: Puccinia Recondite f. Sp. Tritici; test: Fungicidal activity against Puccinia recondita f. sp. tritici / wheat / leaf disc curative (brown rust); assay type: in vivo; settings: foliar, 24 h, 200 ppm in the applied formulation, wheat leaf segments cv. Kanzler, applied 1 day after inoculation, compared to untreated, read-out: disease control
Procedure: as §1
Example 2: Fungicidal Activity Against Puccinia Recondite f. Sp. Tritici Wheat/Leaf Disc Curative (Brown Rust)
Wheat leaf segments cv. Kanzler are placed on agar in multiwell plates (24-well format). The leaf segments are then inoculated with a spore suspension of the fungus. Plates were stored in darkness at 19° C. and 75% relative humidity. The formulated test compound diluted in water was applied 1 day after inoculation. The leaf segments were incubated at 19° C. and 75% relative humidity under a light regime of 12 hours light/12 hours darkness in a climate cabinet and the activity of a compound was assessed as percent disease control compared to untreated when an appropriate level of disease damage appears in untreated check leaf segments (6 to 8 days after application).
as §2

melting point: 112 to 115 °C
SMILES: O=C(NCc1ccc(-c2noc(C(F)(F)F)n2)cc1)N1CCOCC1 [Compound 3.2, N-[[4-[5-(trifluoromethyl)-1,2,4-oxadiazol-3-yl]phenyl]methyl] morpholine-4-carboxamide]
inhibition of growth at 20 ppm [1]: ≥ 80% | pest or weed control at 200 ppm (Phakopsora pachyrhizi): ≥ 80% | pest or weed control at 200 ppm [2]: ≥ 80% | pest or weed control at 200 ppm [3]: ≥ 80%
